Experimental data: ChEMBL document CHEMBL4765344, “Expanding the anticancer potential of 1,2,3-triazoles via simultaneously targeting Cyclooxygenase-2, 15-lipoxygenase and tumor-associated carbonic anhydrases” (Eur J Med Chem, 2020)

Legend:
[1] = test system: A549; assay: Induction of apoptosis in human A549 cells assessed as caspase-9 expression at IC50 by ELISA (reference value: […] +/- […] ng/ml); assay type: functional
[2] = test system: MCF7; assay: Induction of cell cycle arrest in human MCF7 cells assessed as accumulation at pre-G1 phase at IC50 measured after 24 hrs by propidium iodide/RNase staining based flow cytometry (reference value: 1.96%); assay type: functional
[3] = test system: A549; assay: Induction of apoptosis in human A549 cells assessed as total apoptotic cells at IC50 measured after 24 hrs by Annexin V-FITC/propidium iodide staining based flow cytometry (reference value: 0.92%); assay type: functional
[4] = test system: MCF7; assay: Induction of apoptosis in human MCF7 cells assessed as fold change in caspase-9 expression at IC50 by ELISA relative to control; assay type: functional
[5] = Toxicity in BALB/c mouse xenografted with human MCF7 cells assessed as body weight at 23 mg/kg, ip administered thrice a week for 28 days measured on day 28 (reference value: 31.3 gms); assay type: organism-based; conditions: in vivo, 672 h, time 28 day
[6] = test system: MCF7; assay: Induction of cell cycle arrest in human MCF7 cells assessed as reduction in accumulation at G0/G1 phase at IC50 measured after 24 hrs by propidium iodide/RNase staining based flow cytometry relative to control; assay type: functional
[7] = test system: MCF7; assay: Antitumor activity against human MCF7 cells xenografted in BALB/c mouse assessed as reduction in tumor volume at 23 mg/kg, ip administered thrice a week for 28 days by vernier caliper analysis; assay type: functional; conditions: time 28 day
[8] = test system: MCF7; assay: Induction of cell cycle arrest in human MCF7 cells assessed as accumulation at G0/G1 phase at IC50 measured after 24 hrs by propidium iodide/RNase staining based flow cytometry (reference value: 51.72%); assay type: functional
[9] = test system: MCF7; assay: Antiproliferative activity against human MCF-7 cells assessed as cell growth inhibition measured after 72 hrs by SRB assay; assay type: functional, cell-based; conditions: MCF7, 72 h
[10] = test system: MCF7; assay: Induction of cell cycle arrest in human MCF7 cells assessed as increase in accumulation at pre-G1 phase at IC50 measured after 24 hrs by propidium iodide/RNase staining based flow cytometry relative to control; assay type: functional
[11] = test system: A549; assay: Induction of cell cycle arrest in human A549 cells assessed as accumulation at G0/G1 phase at IC50 measured after 24 hrs by propidium iodide/RNase staining based flow cytometry (reference value: 58.26%); assay type: functional
[12] = test system: MCF7; assay: Induction of apoptosis in human MCF7 cells assessed as fold change in Bcl-2 expression at IC50 by ELISA relative to control; assay type: functional
[13] = test system: A549; assay: Induction of cell cycle arrest in human A549 cells assessed as accumulation at G2/M phase at IC50 measured after 24 hrs by propidium iodide/RNase staining based flow cytometry (reference value: 9.86%); assay type: functional
[14] = test system: A549; assay: Induction of apoptosis in human A549 cells assessed as fold change in Bax expression at IC50 by ELISA relative to control; assay type: functional
[15] = test system: A549; assay: Antiproliferative activity against human A549 cells assessed as cell growth inhibition measured after 72 hrs by SRB assay; assay type: functional, cell-based; conditions: A549, 72 h
[16] = test system: MCF7; assay: Antiproliferative activity against human MCF-7 cells assessed as inhibition of cell growth at 100 microM measured after 72 hrs by SRB assay; assay type: functional
[17] = test system: A549; assay: Induction of apoptosis in human A549 cells assessed as Bcl2 expression at IC50 by ELISA (reference value: 9.04 +/-0.1 ng/ml); assay type: functional
[18] = test system: MCF7; assay: Induction of cell cycle arrest in human MCF7 cells assessed as increase in accumulation at G2/M phase at IC50 measured after 24 hrs by propidium iodide/RNase staining based flow cytometry relative to control; assay type: functional
[19] = test system: MCF7; assay: Induction of cell cycle arrest in human MCF7 cells assessed as accumulation at S phase at IC50 measured after 24 hrs by propidium iodide/RNase staining based flow cytometry (reference value: 29.88%); assay type: functional
[20] = test system: HepG2; assay: Antiproliferative activity against human HepG2 cells assessed as cell growth inhibition measured after 72 hrs by SRB assay; assay type: functional, cell-based; conditions: HepG2, 72 h
[21] = test system: A549; assay: Induction of apoptosis in human A549 cells assessed as fold change in caspase-9 expression at IC50 by ELISA relative to control; assay type: functional
[22] = test system: A549; assay: Antiproliferative activity against human A549 cells assessed as inhibition of cell growth at 100 microM measured after 72 hrs by SRB assay; assay type: functional
[23] = test system: MCF7; assay: Induction of apoptosis in human MCF7 cells assessed as caspase-9 expression at IC50 by ELISA (reference value: 1.77 +/- 0.1 ng/ml); assay type: functional
[24] = test system: MCF7; assay: Induction of apoptosis in human MCF-7 cells assessed as total apoptotic cells at IC50 measured after 24 hrs by Annexin V-FITC/propidium iodide staining based flow cytometry (reference value: 0.69%); assay type: functional
[25] = test system: MCF7; assay: Induction of apoptosis in human MCF-7 cells assessed as necrotic cells at IC50 measured after 24 hrs by Annexin V-FITC/propidium iodide staining based flow cytometry (reference value: 1.27%); assay type: functional
[26] = test system: A549; assay: Induction of apoptosis in human A549 cells assessed as fold change in Bcl2 expression at IC50 by ELISA relative to control; assay type: functional
[27] = Toxicity in ip dosed BALB/c mouse measured for 3 days; assay type: organism-based; conditions: in vivo, time 3 day
[28] = test system: MCF7; assay: Induction of apoptosis in human MCF-7 cells assessed as early apoptotic cells at IC50 measured after 24 hrs by Annexin V-FITC/propidium iodide staining based flow cytometry (reference value: 0.4%); assay type: functional
[29] = test system: A549; assay: Induction of apoptosis in human A549 cells assessed as early apoptotic cells at IC50 measured after 24 hrs by annexin V-FITC staining based flow cytometry (reference value: 0.63%); assay type: functional
[30] = test system: WI-38; assay: Cytotoxicity against human WI-38 cells assessed as reduction in cell viability after 72 hrs by SRB assay; assay type: cell-based; conditions: WI-38, 72 h
[31] = test system: MCF7; assay: Induction of apoptosis in human MCF7 cells assessed as Bax expression at IC50 by ELISA (reference value: 45.46 +/- 3.6 pg/ml); assay type: functional
[32] = test system: MCF7; assay: Induction of cell cycle arrest in human MCF7 cells assessed as accumulation at G2/M phase at IC50 measured after 24 hrs by propidium iodide/RNase staining based flow cytometry (reference value: 18.4%); assay type: functional
[33] = test system: A549; assay: Induction of apoptosis in human A549 cells assessed as necrotic cells at IC50 measured after 24 hrs by annexin V-FITC staining based flow cytometry (reference value: 1.01%); assay type: functional
[34] = test system: A549; assay: Induction of apoptosis in human A549 cells assessed as late apoptotic cells at IC50 measured after 24 hrs by annexin V-FITC staining based flow cytometry (reference value: […]); assay type: functional
[35] = test system: A549; assay: Induction of apoptosis in human A549 cells assessed as Bax expression at IC50 by ELISA (reference value: 42.16 +/-6.2 pg/ml); assay type: functional
[36] = test system: HepG2; assay: Antiproliferative activity against human HepG2 cells assessed as inhibition of cell growth at 100 microM measured after 72 hrs by SRB assay; assay type: functional
[37] = test system: A549; assay: Induction of cell cycle arrest in human A549 cells assessed as accumulation at pre-G1 phase at IC50 measured after 24 hrs by propidium iodide/RNase staining based flow cytometry (reference value: 1.93%); assay type: functional
[38] = test system: MCF7; assay: Induction of apoptosis in human MCF7 cells assessed as Bcl-2 expression at IC50 by ELISA (reference value: 7.49 +/- 0.1 ng/ml); assay type: functional
[39] = test system: MCF7; assay: Induction of apoptosis in human MCF7 cells assessed as fold change in Bax expression at IC50 by ELISA relative to control; assay type: functional
[40] = test system: MCF7; assay: Induction of apoptosis in human MCF-7 cells assessed as late apoptotic cells at IC50 measured after 24 hrs by Annexin V-FITC/propidium iodide staining based flow cytometry (reference value: […]); assay type: functional
[41] = test system: A549; assay: Induction of cell cycle arrest in human A549 cells assessed as accumulation at S phase at IC50 measured after 24 hrs by propidium iodide/RNase staining based flow cytometry (reference value: 31.88%); assay type: functional
[42] = biological target: Carbonic anhydrase 12 (Homo sapiens, UniProt O43570); assay: Inhibition of human CA12 by stopped-flow carbon dioxide hydration assay
Carbonic anhydrase 12, sequence (O43570 whole entry): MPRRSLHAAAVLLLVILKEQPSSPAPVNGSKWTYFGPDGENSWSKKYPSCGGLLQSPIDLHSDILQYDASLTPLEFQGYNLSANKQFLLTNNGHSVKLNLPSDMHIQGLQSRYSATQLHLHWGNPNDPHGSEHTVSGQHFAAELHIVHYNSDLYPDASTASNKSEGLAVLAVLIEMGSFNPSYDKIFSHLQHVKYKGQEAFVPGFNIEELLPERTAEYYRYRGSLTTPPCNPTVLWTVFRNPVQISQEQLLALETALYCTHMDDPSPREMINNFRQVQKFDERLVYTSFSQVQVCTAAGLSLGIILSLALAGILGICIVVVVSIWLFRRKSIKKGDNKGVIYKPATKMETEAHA

[43] = test system: MCF7; assay: Induction of apoptosis in human MCF-7 cells assessed as increase in total apoptotic cells at IC50 measured after 24 hrs by Annexin V-FITC/propidium iodide staining based flow cytometry relative to 5-FU; assay type: functional
[44] = biological target: Carbonic anhydrase 9 (Homo sapiens, UniProt Q16790); assay: Inhibition of human CA9 by stopped-flow carbon dioxide hydration assay
[45] = biological target: Carbonic anhydrase 1 (Homo sapiens, UniProt P00915); assay: Inhibition of human CA1 by stopped-flow carbon dioxide hydration assay
Carbonic anhydrase 1, sequence (P00915 whole entry): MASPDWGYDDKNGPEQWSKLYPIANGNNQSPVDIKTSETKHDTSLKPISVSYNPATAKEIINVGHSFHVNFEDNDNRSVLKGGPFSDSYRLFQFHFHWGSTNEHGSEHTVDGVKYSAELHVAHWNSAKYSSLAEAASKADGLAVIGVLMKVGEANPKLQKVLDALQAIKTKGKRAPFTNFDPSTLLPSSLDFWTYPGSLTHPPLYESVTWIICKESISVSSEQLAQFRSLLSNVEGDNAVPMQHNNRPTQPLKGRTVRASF

[46] = biological target: T1, Prostaglandin G/H synthase 1 (Ovis aries, UniProt P05979); assay: Inhibition of ovine COX1 by colorimetric analysis
T1 sequence (P05979 whole entry): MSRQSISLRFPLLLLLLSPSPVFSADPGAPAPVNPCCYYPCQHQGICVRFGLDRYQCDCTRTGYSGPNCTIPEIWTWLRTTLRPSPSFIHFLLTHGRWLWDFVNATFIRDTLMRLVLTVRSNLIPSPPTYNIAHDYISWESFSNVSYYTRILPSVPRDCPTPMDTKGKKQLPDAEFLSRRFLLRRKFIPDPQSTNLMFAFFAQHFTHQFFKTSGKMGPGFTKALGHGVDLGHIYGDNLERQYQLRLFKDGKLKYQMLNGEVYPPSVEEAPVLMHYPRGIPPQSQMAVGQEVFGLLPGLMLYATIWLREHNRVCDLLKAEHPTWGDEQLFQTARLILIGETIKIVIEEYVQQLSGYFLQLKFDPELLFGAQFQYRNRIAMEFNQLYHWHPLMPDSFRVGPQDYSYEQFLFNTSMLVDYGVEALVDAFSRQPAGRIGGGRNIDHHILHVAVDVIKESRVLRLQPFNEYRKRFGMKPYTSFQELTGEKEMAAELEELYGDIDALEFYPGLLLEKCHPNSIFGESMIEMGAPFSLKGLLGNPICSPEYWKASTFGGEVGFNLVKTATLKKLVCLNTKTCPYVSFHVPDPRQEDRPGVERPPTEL

[47] = biological target: Carbonic anhydrase 2 (Homo sapiens, UniProt P00918); assay: Inhibition of human CA2 by stopped-flow carbon dioxide hydration assay
[48] = Inhibition of soya bean 15-LOX; design: species or system Glycine max
[49] = test system: HT-29; assay: Cytotoxicity against human HT-29 cells assessed as reduction in cell viability incubated for 24 hrs by MTS assay; assay type: functional, cell-based; conditions: HT-29, 24 h
[50] = test system: THP-1; assay: Cytotoxicity against PMA/LPS-challenged human THP1 cells assessed as reduction in cell viability incubated for 24 hrs by MTS assay; assay type: functional, cell-based; conditions: THP-1, 24 h

## O=c1[nH]cc(F)c(=O)[nH]1 [FLUOROURACIL]
[1]
  Activity: 13.98 ng/mL
[2]
  Activity: 27.52%
[3]
  Activity: 24.97%
[4]
  fold change (FC): 11.8
[5]
  Activity: 24.5 g
[6]
  fold change (FC): 1.5
[7]
  Activity: 0.41 cm3
[8]
  Activity: 34.09%
[9]
  IC50: 0.59 µM
[10]
  fold change (FC): 14
[11]
  Activity: 36.47%
[12]
  fold change (FC): 0.3
[13]
  Activity: 37.82%
[14]
  fold change (FC): 8.93
[15]
  IC50: 0.69 µM
[16]
  inhibition at 100 µM: 90.7%
[17]
  Activity: 6.21 ng/mL
[18]
  fold change (FC): 2.3
[19]
  Activity: 23.84%
[20]
  IC50: 0.52 µM
[21]
  fold change (FC): 11.63
[22]
  inhibition at 100 µM: 89.3%
[23]
  Activity: 20.87 ng/mL
[24]
  Activity: 24.97%
[25]
  Activity: 2.55%
[26]
  fold change (FC): 0.68
[27]
  LD50 at 72 h: 57.2 mg/kg
[28]
  Activity: 7.26%
[29]
  Activity: 4.29%
[30]
  IC50: 78.5 µM
[31]
  Activity: 289.9 pg/mL
[32]
  Activity: 42.07%
[33]
  Activity: 3.11%
[34]
  Activity: 20.68%
[35]
  Activity: 376.9 pg/mL
[36]
  inhibition at 100 µM: 80.7%
[37]
  Activity: 28.08%
[38]
  Activity: 2.23 ng/mL
[39]
  fold change (FC): 6.37
[40]
  Activity: 17.71%
[41]
  Activity: 25.71%

## C/C(=N\Nc1nc(-c2ccc(Cl)cc2)cs1)c1nnn(-c2ccc(Cl)cc2)c1C
[42]
  Ki: > 100 µM
[2]
  Activity: 19.36%
[4]
  fold change (FC): 7.36
[6]
  fold change (FC): 1.4
[8]
  Activity: 36.41%
[9]
  IC50: 2.69 µM
[10]
  fold change (FC): 9.9
[12]
  fold change (FC): 0.54
[15]
  IC50: 8.9 µM
[16]
  inhibition at 100 µM: 91.3%
[18]
  fold change (FC): 2.1
[19]
  Activity: 24.89%
[20]
  IC50: 2.37 µM
[43]
  Activity: 70%
[44]
  Ki: > 100 µM
[45]
  Ki: > 100 µM
[22]
  inhibition at 100 µM: 77.5%
[23]
  Activity: 13.02 ng/mL
[24]
  Activity: 17.17%
[25]
  Activity: 2.19%
[28]
  Activity: 5.88%
[30]
  IC50: 379 µM
[46]
  IC50: 11.9 µM
[47]
  Ki: > 100 µM
[48]
  IC50: 1.68 µM
[31]
  Activity: 227.2 pg/mL
[32]
  Activity: 38.7%
[49]
  IC50: 36.5 µM
[36]
  inhibition at 100 µM: 74.4%
[50]
  IC50: 133 µM
[38]
  Activity: 4.02 ng/mL
[39]
  fold change (FC): 4.99
[40]
  Activity: 11.29%
